Measured values: patent US7053052B2, “Therapies involving mutated heat shock transcription factor” (priority 1997, dated 2006)

What was measured:
HepG2 cells = test: Mortality from simulated ischemia (LDH release); type: cell-based, human
Procedure: After heat treatment, cultures were incubated overnight at 37° C. When trypan blue exclusion was used as the criterion for cell survival, cells (unattached and attached) were harvested, and trypan blue-excluding cells were counted in a hemocytometer. In some experiments, cell killing was estimated by the lactate dehydrogenase (LDH) release assay, using the LDH Assay Kit from Sigma Corp. (St. Louis, Mo.). To quantify detachment from the substratum, cultures were washed three times with prewarmed DMEM, and the number of cells remaining on dishes were determined using a hemocytometer. […] Ischemic conditions were simulated as described previously (Mestril, R. et al., J. Clin. Invest., 93:759–767 (1994)). Briefly, cells were placed in slightly hypotonic HBSS (1.3 mM CaCl2, 5 mM KCl, 0.3 mM KH2PO4, 0.5 mM MgCl2, 0.4 mM MgSO4, 69 mM NaCl, 4 mM NaHCO3, 0.3 mM Na2HPO4) without glucose or serum, and made hypoxic for 4–6 hours at 37° C. Control cells were left under normoxic conditions for the same period of time. Hypoxia was achieved by using an air-tight jar from which oxygen was removed by displacement with argon. After 10 minutes of gas exchange, the oxygen concentration was <0.2%. Hypoxia was maintained using the oxygen-consuming GasPak System from BBL Microbiology Systems (Cockeysville, Md.).

HeLa-CAT cells = test: Recovery of translation after heat shock (3H-leucine pulse-labeling); type: cell-based, human; details: contribution of untransfected cells subtracted
Procedure: In a typical experiment, parallel HeLa-CAT cultures in 60 mm dishes (more than 70% confluent) were transfected with 0.75 ug of EGFP construct and 2.25 ug of HSF1(+) or HSF1(−) construct and 15 ul Lipofectamine™. Before exposing the cultures to heat shock about 36 hours post transfection, cells were replated (to achieve about 70% confluence). Note that in some experiments, HSF1(+) was delivered by infection with an adenoviral vector rather than by transfection. Cultures were exposed to a 42° C./1 hour heat shock and then returned to 37° C. Rates of protein synthesis before, during, and at different times after a subsequent, more severe heat shock were determined by pulse-labeling of cells with ^3H-leucine. For labeling, cultures were washed two times with prewarmed PBS, and one ml of labeling medium (leucine-free DMEM with 2% FBS and 65 uCi of ^3H-leucine (179 Ci/mmolc)) was added. […] Relative rates of protein synthesis were calculated as cpm/ug protein. […]
To find out whether HSF1(−) could function as a negatively acting factor, HeLa-CAT cells containing integrated copies of an hsp70B-chloramphenicol acetyltransferase (CAT) gene were co-transfected with an HSF1(−) and an EFGP-expressing construct. […] Rates of protein synthesis were assessed by pulse-labeling cells with ^3H-leucine. […]

Row | Substance | decrease of mortality from simulated ischemia (HepG2 cells) | corrected rate of protein synthesis one hour after heat shock (HeLa-CAT cells; first experiment) | corrected rate of protein synthesis one hour after heat shock (HeLa-CAT cells; second experiment) [%]
1 | human HSF1d202–316 [HSF1(+)] | more than 50% | – | –
2 | human HSF1d453–523 [HSF1(−)] | – | about 5% | ~24
